This note sets out measurements from patent US20210386069A1 (priority 2018, published 2021).

The first data set can be described thus: log P by HPLC on a reversed-phase column (C 18), EEC Directive 79/831 Annex V.A8. Particulars: HPLC reversed-phase C 18, 40° C., 0.1% aqueous formic acid and acetonitrile, linear gradient 10% to 95% acetonitrile. In kind it is physicochemical. On the procedure:
In table 1, the log P values were determined in accordance with EEC Directive 79/831 Annex V.A8 by HPLC (High Performance Liquid Chromatography) on a reversed-phase column (C 18), using the method described below:
temperature: 40° C.; mobile phases: 0.1% aqueous formic acid and acetonitrile; linear gradient from 10% acetonitrile to 95% acetonitrile;
If more than one Log P value is available within the same method, all the values are given and separated by “;”.
Calibration was carried out using unbranched alkan-2-ones (comprising 3 to 16 carbon atoms) with known log P values (determination of the log P values by the retention times using linear interpolation between two successive alkanones). lambda-max-values were determined using UV-spectra from 200 nm to 400 nm and the peak values of the chromatographic signals.
Consider `COc1cnccc1-c1c(F)cccc1Nc1cc2ccc(F)c(F)c2nc1C` [I.081], for which the logP (commonly a log measure of how a compound divides between an organic and an aqueous phase) came out at 2.44.

For the molecule `COc1ccncc1-c1c(F)cccc1Nc1cc2ccc(F)c(F)c2nc1C` [I.082], the logP is listed as 1.84. Still for that read-out and setting: next, `COc1cc(-c2c(F)cccc2Nc2cc3ccc(F)c(F)c3nc2C)ccn1` [I.083]: 3.71. On the same count and under the same terms, next, `Cc1cnc(Cl)c(-c2ccccc2Nc2cc3ccc(F)c(F)c3nc2C)c1` [I.084]: 3.69. Still for that read-out and setting: next, `Cc1nc2c(F)c(F)ccc2cc1Nc1ccccc1-c1ccc(Cl)nc1C` [I.085]: 3.94. For the molecule `Cc1cc(Cl)ncc1-c1ccccc1Nc1cc2ccc(F)c(F)c2nc1C` [I.086], the logP stood at 3.98. Still for that read-out and setting: with `Cc1cc(-c2ccccc2Nc2cc3ccc(F)c(F)c3nc2C)cnc1Cl` [I.087] the figure was 3.91; with `COc1ncc(-c2c(F)cccc2Nc2cc3ccc(F)c(F)c3nc2C)cn1` [I.088], 3.08; with `Cc1cc(-c2c(F)cccc2Nc2cc3ccc(F)c(F)c3nc2C)cnc1F` [I.089], 3.75. On the same count and under the same terms, with `Cc1nc2c(F)c(F)ccc2cc1Nc1ccccc1-c1cncc(F)c1Cl` [I.090] the figure was 3.62.

For `Cc1nc2c(F)c(F)ccc2cc1Nc1cccc(F)c1-c1ccnc(Cl)c1` [I.091], the logP worked out at 3.69.

In the case of `Cc1nc2c(F)c(F)ccc2cc1Nc1cccc(F)c1-c1ccc(Cl)nc1` [I.092], the logP came to 3.72.

In turn, `Cc1nc2c(F)c(F)ccc2cc1Nc1cccc(F)c1-c1ccncc1Cl` [I.093] gave a logP of 3.46. Still for that read-out and setting: next, `Cc1nc2c(F)c(F)ccc2cc1Nc1cccc(F)c1-c1cccnc1Cl` [I.094]: 3.50; `Cc1nc2c(F)c(F)ccc2cc1Nc1ccccc1-c1cc(Cl)cnc1F` [I.095]: 4.01. Still for that read-out and setting: next, `Cc1nc2c(F)c(F)ccc2cc1Nc1ccccc1-c1ccnc(F)c1Cl` [I.096]: 3.91; `Cc1nc2c(F)c(F)ccc2cc1Nc1ccccc1-c1cc(F)cnc1Cl` [I.097]: 3.81; `Cc1nc2c(F)c(F)ccc2cc1Nc1ccccc1-c1cc(Cl)ncc1F` [I.098]: 3.91. For the molecule `Cc1nc2c(F)c(F)ccc2cc1Nc1cccc(F)c1-c1cncc(Cl)c1` [I.099], the logP amounted to 3.60. On the same count and under the same terms, with `Cc1nc2c(F)c(F)ccc2cc1Nc1cccc(F)c1-c1cc(F)nc(F)c1` [I.100] the figure was 3.98; with `Cc1nc2c(F)c(F)ccc2cc1Nc1cccc(F)c1-c1ccnc(F)c1F` [I.101], 3.81. Molecule `Cc1nc2c(F)c(F)ccc2cc1Nc1cccc(F)c1-c1ccc(F)nc1F` [I.103] displayed a logP of 3.84.

In turn, `Cc1nc2c(F)c(F)ccc2cc1Nc1cccc(F)c1-c1cccnc1C1CC1` [I.105] registered a logP of 3.25. Still for that read-out and setting: next, `Cc1nc2c(F)c(F)ccc2cc1Nc1cccc(F)c1-c1ccncc1C1CC1` [I.106]: 2.49.

As to `Cc1nc2c(F)c(F)ccc2cc1Nc1ccccc1-c1ccc(OC(C)C)nc1` [I.107], the logP is reported as 4.43. The same measure, in the same setting: next, `COc1ccc(-c2ccccc2Nc2cc3ccc(F)c(F)c3nc2C)c(OC)n1` [I.108]: 4.62; `CCCc1ncccc1-c1c(F)cccc1Nc1cc2ccc(F)c(F)c2nc1C` [I.109]: 2.62; `CCCc1cnccc1-c1c(F)cccc1Nc1cc2ccc(F)c(F)c2nc1C` [I.110]: 2.89.

As to `CCCc1ccncc1-c1c(F)cccc1Nc1cc2ccc(F)c(F)c2nc1C` [I.111], the logP came to 2.75. Same read-out and setting: next, `CCOc1ccc(-c2c(F)cccc2Nc2cc3ccc(F)c(F)c3nc2C)cn1` [I.112]: 4.09.

Molecule `CCOc1ncccc1-c1c(F)cccc1Nc1cc2ccc(F)c(F)c2nc1C` [I.113] had a logP of 4.13. Still for that read-out and setting: next, `CSc1ccc(-c2c(F)cccc2Nc2cc3ccc(F)c(F)c3nc2C)cn1` [I.114]: 3.91; `CSc1ncccc1-c1c(F)cccc1Nc1cc2ccc(F)c(F)c2nc1C` [I.115]: 3.98; `COc1nccc(-c2ccccc2Nc2cc3ccc(F)c(F)c3nc2C)c1Cl` [I.116]: 4.09. For `COc1c(-c2c(F)cccc2Nc2cc3ccc(F)c(F)c3nc2C)ccnc1F` [I.117], the logP is 3.75. The same measure, in the same setting: with `Cc1cnc(Cl)c(-c2c(F)cccc2Nc2cc3ccc(F)c(F)c3nc2C)c1` [I.118] the figure was 3.75; with `Cc1cc(-c2c(F)cccc2Nc2cc3ccc(F)c(F)c3nc2C)cnc1Cl` [I.119], 3.98. With `Cc1nc2c(F)c(F)ccc2cc1Nc1cccc(F)c1-c1ccc(Cl)nc1C` [I.120], the logP amounted to 4.01. `Cc1cc(Cl)ncc1-c1c(F)cccc1Nc1cc2ccc(F)c(F)c2nc1C` [I.121]: the logP was 4.01. The same measure, in the same setting: next, `Cc1nc2c(F)c(F)ccc2cc1Nc1ccccc1-c1cncc(C(F)(F)F)c1` [I.122]: 3.65.

`Cc1nc2c(F)c(F)ccc2cc1Nc1ccccc1-c1ccc(C(F)(F)F)nc1` [I.123] displayed a logP of 3.91. The same measure, in the same setting: next, `Cc1nc2c(F)c(F)ccc2cc1Nc1ccccc1-c1cc(Cl)cnc1Cl` [I.124]: 4.13; `Cc1nc2c(F)c(F)ccc2cc1Nc1cccc(F)c1-c1cc(Cl)ncc1F` [I.126]: 3.98. Consider `Cc1nc2c(F)c(F)ccc2cc1Nc1cccc(F)c1-c1cc(F)cnc1Cl` [I.127], for which the logP is listed as 3.87. On the same count and under the same terms, with `Cc1nc2c(F)c(F)ccc2cc1Nc1cccc(F)c1-c1cc(Cl)cnc1F` [I.128] the figure was 4.05; with `Cc1nc2c(F)c(F)ccc2cc1Nc1cccc(F)c1-c1ccnc(F)c1Cl` [I.129], 3.98.

`Cc1nc2c(F)c(F)ccc2cc1Nc1cccc(F)c1-c1ccc(OC(C)C)nc1` [I.130] showed a logP of 4.47. Still for that read-out and setting: next, `COc1ccc(-c2c(F)cccc2Nc2cc3ccc(F)c(F)c3nc2C)c(OC)n1` [I.131]: 4.43. For `COc1nccc(-c2c(F)cccc2Nc2cc3ccc(F)c(F)c3nc2C)c1Cl` [I.132], the logP is on record as 4.09. The molecule `Cc1nc2c(F)c(F)ccc2cc1Nc1cccc(F)c1-c1cncc(C(F)(F)F)c1` [I.133] returned a logP of 3.75.

In turn, `Cc1nc2c(F)c(F)ccc2cc1Nc1cccc(F)c1-c1ccc(C(F)(F)F)nc1` [I.134] registered a logP of 3.94.

`COc1cc(-c2ccccc2Nc2cc3ccc(F)c(F)c3nc2C)c(Br)cn1` [I.135] registered a logP of 4.36. Molecule `Cc1nc2c(F)c(F)ccc2cc1Nc1cccc(F)c1-c1cc(F)cnc1F` [I.136] registered a logP of 3.71. Still for that read-out and setting: next, `Cc1nc2c(F)c(F)ccc2cc1Cc1cccnc1-c1ccnc(F)c1` [I.137]: 2.52; `Fc1cc(-c2cscc2Cc2cnc3c(F)cccc3c2)ccn1` [I.139]: 3.11.

The same data set, now with this note: reversed-phase HPLC column (C 18); preparation examples; log P as defined in table 1 (HPLC, 0.1% aqueous formic acid/acetonitrile).
For the molecule `Cc1nc2c(F)c(F)ccc2cc1Nc1cccc(F)c1-c1cnccc1C1CC1` [I.104, N-[2-(4-cyclopropylpyridin-3-yl)-3-fluorophenyl]-7,8-difluoro-2-methylquinolin-3-amine], the chromatographic logP (as a rule, lipophilicity estimated from chromatographic retention) stood at 2.12.

Consider `Cc1nc2c(F)c(F)ccc2cc1Cc1cscc1-c1ccnc(F)c1` [I.138, 7,8-difluoro-3-{[4-(2-fluoropyridin-4-yl)-3-thienyl]methyl}-2-methylquinoline], for which the chromatographic logP came out at 3.64. Same read-out and setting: with `Cc1nc2c(F)c(F)ccc2cc1Nc1cccc(F)c1Br` [N-(2-bromo-3-fluorophenyl)-7,8-difluoro-2-methylquinolin-3-amine] the figure was 3.28.
